# Experimental data taken from patent US20200107568A1, “METHOD FOR REDUCING LINGERING SWEET AFTERTASTE” (SUNTORY HOLDINGS LIMITED, priority 2017, published 2020).
# Biological target: T1, taste receptor (Homo sapiens, UniProt Q7RTX0+Q8TE23)
# T1 construct: endogenous in cells; host or cells: taste cells in the mouths of human panelists (in vivo tasting test)
# T1 sequence (Q8TE23 20-839): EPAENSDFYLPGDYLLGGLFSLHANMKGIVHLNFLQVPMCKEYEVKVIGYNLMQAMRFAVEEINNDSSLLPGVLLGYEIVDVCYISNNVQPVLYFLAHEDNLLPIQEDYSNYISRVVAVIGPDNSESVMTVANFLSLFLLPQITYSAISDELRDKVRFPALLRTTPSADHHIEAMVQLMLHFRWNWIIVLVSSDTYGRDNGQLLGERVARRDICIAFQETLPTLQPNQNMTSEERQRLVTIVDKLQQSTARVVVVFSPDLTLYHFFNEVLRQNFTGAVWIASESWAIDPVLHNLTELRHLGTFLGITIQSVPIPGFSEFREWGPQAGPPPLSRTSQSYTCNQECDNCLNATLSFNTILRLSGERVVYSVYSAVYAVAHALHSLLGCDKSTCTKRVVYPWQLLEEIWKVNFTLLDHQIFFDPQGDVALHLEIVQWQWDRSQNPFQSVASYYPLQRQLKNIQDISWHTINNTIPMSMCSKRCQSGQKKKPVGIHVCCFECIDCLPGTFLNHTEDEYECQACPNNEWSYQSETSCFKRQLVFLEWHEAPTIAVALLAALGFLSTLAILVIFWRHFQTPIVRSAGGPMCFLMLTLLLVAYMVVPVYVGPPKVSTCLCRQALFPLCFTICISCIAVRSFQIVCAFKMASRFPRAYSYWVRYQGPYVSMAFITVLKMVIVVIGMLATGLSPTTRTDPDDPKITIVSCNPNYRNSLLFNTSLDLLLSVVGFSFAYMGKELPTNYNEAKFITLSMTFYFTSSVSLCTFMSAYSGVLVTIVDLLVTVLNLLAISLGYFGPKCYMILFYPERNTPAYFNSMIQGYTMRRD
# T1 sequence (Q7RTX0 21-852): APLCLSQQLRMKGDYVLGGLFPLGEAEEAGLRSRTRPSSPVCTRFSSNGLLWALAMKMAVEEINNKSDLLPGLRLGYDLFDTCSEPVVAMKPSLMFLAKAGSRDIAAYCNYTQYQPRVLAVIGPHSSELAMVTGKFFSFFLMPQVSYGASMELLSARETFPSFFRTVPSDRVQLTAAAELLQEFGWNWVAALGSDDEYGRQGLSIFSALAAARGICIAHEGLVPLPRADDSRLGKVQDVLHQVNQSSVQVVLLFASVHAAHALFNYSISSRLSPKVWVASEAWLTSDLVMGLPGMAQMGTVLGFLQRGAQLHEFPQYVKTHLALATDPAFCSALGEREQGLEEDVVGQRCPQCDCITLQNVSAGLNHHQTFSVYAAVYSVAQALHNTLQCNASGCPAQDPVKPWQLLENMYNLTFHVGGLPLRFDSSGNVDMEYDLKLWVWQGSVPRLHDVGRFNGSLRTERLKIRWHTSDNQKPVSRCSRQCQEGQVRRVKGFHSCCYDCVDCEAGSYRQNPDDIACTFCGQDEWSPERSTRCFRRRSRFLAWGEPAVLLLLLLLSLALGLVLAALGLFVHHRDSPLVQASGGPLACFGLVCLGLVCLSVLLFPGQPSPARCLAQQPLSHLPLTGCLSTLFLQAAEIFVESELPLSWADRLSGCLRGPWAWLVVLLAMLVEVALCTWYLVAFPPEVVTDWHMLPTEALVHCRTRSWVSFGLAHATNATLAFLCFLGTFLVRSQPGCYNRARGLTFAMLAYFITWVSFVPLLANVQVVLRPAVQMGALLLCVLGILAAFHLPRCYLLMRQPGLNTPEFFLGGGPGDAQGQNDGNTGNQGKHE
# Test: Evaluation of sweet lingering by sensory panel, VAS sweetness intensity rating
# Format: in vivo
# Conditions: with respect to rebaudioside D (reference solution α1, 593 ppm); blend 1:1; N=4; found/theoretical index minus 1
# Experimental: (1) A reference solution α (a beverage containing only a high-intensity sweetener as a sweetener), a reference solution β (a beverage containing another sweetener and having the same sweetness intensity as the reference solution α), and a sample solution γ (a beverage composed of a mixture of the reference solutions α and β at a predetermined ratio as a sample solution) are prepared in individual cups. (2) The mouth is rinsed thoroughly with water and emptied. This rinsing process is repeated four times. (3) A defined amount (10 ml) of the reference solution α, or β, or the sample solution γ is put in the mouth in one breath, and spit out after 5 sec. […]
# A sweet lingering was measured by the above-described method of with respect to each of 3 solutions of a reference solution α, a reference solution β, and a sample solution γ composed thereof, which were adjusted to the same sweetness intensity. The order of the measurements was determined randomly for each evaluator. Next, the theoretical value of the sweet lingering of a sample solution γ is determined from the blend ratio (A:B) of the reference solution α to the reference solution β. […]
# Each panel evaluated the respective sweet lingering of the reference solutions α1, and β1, and the sample solution γ1 by the above-described method. […]
row,Compound,Effect of reducing a sweet lingering [%]
1,thaumatin,43
2,O=C(CO)[C@@H](O)[C@H](O)[C@H](O)CO [fructose],7
